The text below walks through data of ChEMBL document CHEMBL1201862, “PubChem BioAssay data set” (2004).

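In this assay, cells in 96-well plates receive the compound at five concentrations for 48 hours. Endpoints are linearly interpolated between the surrounding concentrations. Here, GI50 denotes the concentration required for 50% inhibition of growth.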 Calls of active or inactive are those of the source. No stated cut-off is given here; in the data, active = GI50 up to about 1.1 µM and inactive = higher.

Among the test systems are OVCAR-3; SF-268; KM12; M14; U-251; SN12C; HCT-15; CAKI-1; SNB-75; SK-MEL-5; RPMI-8226; K562; NCI-H460; IGROV-1; HCT-116; SK-OV-3; SW-620; HOP-92.
Experiment in all cases: NCI-60 cell line screen, 48 h

`CS(=O)(=O)N/N=C/CN1C(=O)c2ccccc2C1=O`: the GI50 with OVCAR-3, with SF-268, in the assay with KM12, in the assay on M14, in the assay on U-251 and with SN12C was > 100 µM (inactive) throughout. For the same compound, the GI50 was > 100 µM in the assay with HCT-15; > 100 µM (inactive) in the assay on CAKI-1; > 100 µM (inactive) in the assay with SNB-75; > 100 µM (inactive) with SK-MEL-5; > 100 µM (inactive) with RPMI-8226; > 100 µM (inactive) in the assay with K562. Also, the GI50 with NCI-H460, in the assay with IGROV-1, in the assay on HCT-116, in the assay with SK-OV-3 and in the assay on SW-620 was > 100 µM (inactive) throughout.

Consider `CC(=O)C1C(=O)C(=O)N(c2ccc(Cl)cc2C)C1=O` (stereo not given), for which the GI50 with SF-268, in the assay on KM12, in the assay on M14, in the assay with U-251, in the assay with HOP-92 and with SN12C was > 100 µM (inactive) throughout. The GI50 is > 100 µM in the assay on HCT-15; > 100 µM (inactive) in the assay on SK-MEL-5; > 100 µM (inactive) in the assay on K562; > 100 µM (inactive) in the assay with NCI-H460; > 100 µM (inactive) in the assay with IGROV-1; > 100 µM (inactive) with HCT-116. The GI50 with SW-620 is > 100 µM (inactive).

On to `COc1ccc2c(c1)[n+]([O-])c(-c1cccc(Cl)c1)c(N)[n+]2[O-]`, for which the GI50 with OVCAR-3 is 36.2 µM (inactive); with SF-268, 33.8 µM (inactive); with KM12 it was 48.6 µM (inactive); with U-251 it was 37.3 µM (inactive); in the assay on HOP-92, > 100 µM (inactive); in the assay with SN12C it was 48.4 µM (inactive). The GI50 with CAKI-1 was 62.4 µM (inactive); in the assay on SK-MEL-5, 19.2 µM (inactive); in the assay with K562, 45.1 µM (inactive); in the assay on NCI-H460, 27.4 µM (inactive); in the assay with IGROV-1, 46.8 µM (inactive); in the assay on HCT-116, 38.5 µM (inactive). Besides, the GI50 was 95.9 µM (inactive) in the assay on SK-OV-3 and 39.7 µM (inactive) with SW-620.

As for `COC(C(O)c1ccc2c(c1)OCO2)P(=O)(c1ccccc1)c1ccccc1` (stereo not given), the GI50 with OVCAR-3 is 15.1 µM (inactive); in the assay with SF-268, > 100 µM (inactive); in the assay on KM12, > 100 µM (inactive); with M14 it was > 100 µM (inactive); with U-251, > 100 µM (inactive); in the assay with HOP-92, 68.2 µM (inactive). Also, the GI50 in the assay on SN12C was 62.8 µM (inactive); with CAKI-1 it was 33.6 µM (inactive); in the assay with SNB-75 it was 35.9 µM (inactive); with SK-MEL-5 it was > 100 µM (inactive); in the assay with K562, 60.3 µM (inactive); with NCI-H460, > 100 µM (inactive). For the same compound, the GI50 in the assay with IGROV-1 is > 100 µM (inactive); in the assay with HCT-116, > 100 µM (inactive); in the assay on SK-OV-3, > 10 µM (inactive); in the assay with SW-620, > 100 µM (inactive).

For `CC1C(/C=C/c2ccoc2)ON2CCCC12` (stereo not given), the GI50 in the assay on SF-268 was > 100 µM (inactive); in the assay with M14 it was > 10 µM (inactive); in the assay on U-251, > 100 µM (inactive); in the assay with HOP-92, 17.8 µM (inactive); in the assay on SN12C, > 100 µM (inactive); in the assay with CAKI-1, > 100 µM (inactive). Besides, the GI50 with SNB-75, with NCI-H460 and in the assay with SW-620 was > 100 µM (inactive) in each case.

Take `O=C1NC2CCCCCC2C12CCCCC2` (stereo not given): the GI50 in the assay with OVCAR-3, with SF-268, with KM12, with M14, in the assay on U-251 and in the assay on SN12C was > 100 µM (inactive) throughout. Besides, the GI50 is > 100 µM in the assay on HCT-15; > 100 µM (inactive) in the assay with SNB-75; > 100 µM (inactive) with K562; > 100 µM (inactive) with NCI-H460; > 100 µM (inactive) with IGROV-1; > 100 µM (inactive) in the assay with HCT-116. The GI50 in the assay with SK-OV-3 and in the assay on SW-620 was > 100 µM (inactive) each time.

Regarding `CCOC(=O)C1CCn2c(nc3c(=O)n(C)c(=O)n(C)c32)S1` (stereo not given), the GI50 in the assay with OVCAR-3 is > 100 µM (inactive); in the assay on SF-268, > 100 µM (inactive); in the assay with M14 it was > 100 µM (inactive); in the assay with U-251, > 100 µM (inactive); in the assay on SN12C, > 100 µM (inactive); in the assay on HCT-15 it was > 100 µM. Besides, the GI50 in the assay with CAKI-1, in the assay with SNB-75, in the assay on SK-MEL-5, with RPMI-8226, in the assay on K562 and with NCI-H460 was > 100 µM (inactive) in each case. Besides, the GI50 with IGROV-1, in the assay with HCT-116, with SK-OV-3 and in the assay with SW-620 was > 100 µM (inactive) throughout.

For `CCCCCCCCCCCC(=O)C1=C(O)CCC(O)C1=O` (stereo not given), the GI50 in the assay with OVCAR-3 is 10.8 µM (inactive); in the assay on SF-268, 27.2 µM (inactive); in the assay with KM12 it was 17.9 µM (inactive); in the assay with U-251 it was 14.6 µM (inactive); in the assay with HOP-92, 17.7 µM (inactive); with SN12C, 21.8 µM (inactive). Moreover, the GI50 was 8.89 µM in the assay with HCT-15; 23 µM (inactive) with CAKI-1; 21.6 µM (inactive) in the assay on SNB-75; 10 µM (inactive) in the assay on SK-MEL-5; 7.6 µM (inactive) in the assay with K562; 15.7 µM (inactive) in the assay on NCI-H460. Moreover, the GI50 was 19.9 µM (inactive) in the assay with IGROV-1, 21.3 µM (inactive) in the assay on HCT-116, 26.8 µM (inactive) in the assay on SK-OV-3 and 13.2 µM (inactive) in the assay on SW-620.

For the compound `COC(=O)C#CCC1CCCC1C1SCCS1` (stereo not given), the GI50 in the assay with OVCAR-3 is 88.3 µM (inactive); in the assay on SF-268 it was > 100 µM (inactive); in the assay with KM12 it was 36.7 µM (inactive); in the assay with M14 it was > 100 µM (inactive); with U-251 it was 59.6 µM (inactive); with HOP-92, > 100 µM (inactive). Also, the GI50 is 37.5 µM (inactive) with SN12C; > 100 µM (inactive) in the assay on CAKI-1; > 100 µM (inactive) in the assay with SNB-75; > 100 µM (inactive) with SK-MEL-5; 43.5 µM (inactive) with K562; > 100 µM (inactive) in the assay with IGROV-1. In addition, the GI50 in the assay with HCT-116, with SK-OV-3 and with SW-620 was > 100 µM (inactive) each time.

In the case of `c1ccc(N/N=C2\NN=C(c3ccccc3)CS2)cc1`, the GI50 was 14.9 µM (inactive) with OVCAR-3; 5.18 µM (inactive) with SF-268; 13.2 µM (inactive) with KM12; 6.73 µM (inactive) with M14; > 10 µM (inactive) in the assay with U-251; 11.3 µM (inactive) with HOP-92. Further, the GI50 is > 10 µM (inactive) in the assay on SN12C; 4.59 µM in the assay with HCT-15; 2.55 µM (inactive) in the assay with CAKI-1; 3.34 µM (inactive) in the assay on K562; 14 µM (inactive) with NCI-H460; 15 µM (inactive) in the assay with IGROV-1. The figures for the GI50 with HCT-116, in the assay on SK-OV-3 and in the assay on SW-620 were 3.8 µM (inactive), 14.9 µM (inactive) and 12.1 µM (inactive), respectively.
